Laboratory results: US20230416224A1, “PROCESSES FOR PREPARING ARIMOCLOMOL CITRATE AND INTERMEDIATES THEREOF” (ZEVRA DENMARK A/S, priority 2020, published 2023)

Legend:
[1] = Particle size distribution of ORZY-05 by static automated imaging (Morphologi 4); type: physicochemical; conditions: ORZY-05 particles
Method: The materials and methods were essentially as in Example 7. In the present example, the cooling time of the cooling step of from 30° C. to 0° C. subsequent to addition of acetone was varied and its influence on the particle size of ORZY-05 was determined. The cooling time is a measure of how long it takes to reach 0° C. from 30° C. The particle size distribution (PSD) data shown in Table 3 were acquired using static automated imaging (Morphology 4).
Morphologi 4: The Particle size distribution of Arimoclomol citrate (ORZY-05) was also measured using a Malvern Morphologi 4 equipment.
Wet measurement was used for the needle shaped particles. […] Measurements were made using a thin path wet cell (75*75 mm). Samples were prepared by adding 20 mL of dispersant to 10 mg of API, followed by 30 s of stirring and 2 min of sonication in order to break the agglomerates. A microscope magnifier of X10 or X20 was used, and segmentation sharp edge and/or thresholding was used to improve the focus microscope focus.

[2] = Particle size distribution of ORZY-05 by Malvern Mastersizer 3000; type: physicochemical; conditions: ORZY-05 particles, Malvern Mastersizer 3000, volume distribution
Method: Further batches of ORZY-05 were prepared essentially as in Example 7 and the ORZY-05 particles were examined using Malvern Mastersizer 3000 as described in Example 11.
Malvern Mastersizer 3000: Particle size distribution of Arimoclomol citrate (ORZY-05) was determined by light scattering using a Malvern Mastersizer 3000 particle size analyzer (Malvern Instruments Ltd, Grovewood Road, Malvern, Worcestershire WR14 1XZ, United Kingdom) with a Hydro MV wet-dispersion unit attached. 2-Propanol with 1.8 g/L SPAN-85 additive was used as a dispersion medium (“dispersant”) and added to the dispersion unit. Prior to sample addition, the background counts of the system were determined by circulating the dispersant through the measurement cell under measurement conditions (2500 rpm stirrer speed). Samples for analysis were prepared by adding a suitable amount of Arimoclomol citrate to a 10 mL vial and pre-dispersing it with dispersant under light agitation for a few seconds. The pre-dispersed sample was then pipetted into the Hydro MV dispersion unit filled with dispersant to meet a laser obscuration range of 10-15%. A single-use PE pipette was used for this and representative sampling from the 10 mL vial was ensured by continuous agitation. […] Volume distributions were obtained and the D10, D50 and D90 were calculated from these distributions and reported. For each sample, a single sample preparation was analyzed using red light measurement only. Upon measurement completion, the sample cell was emptied and cleaned.

| Compound | Number CE Diameter D10 [1] | Number CE Diameter D50 [1] | Number CE Diameter D90 [1] | Number CE Diameter Mean [1] | Number Length D10 [1] | Number Length D50 [1] | Number Length D90 [1] | Volume CE Diameter D10 [1] | Volume CE Diameter D50 [1] | Volume CE Diameter D90 [1] | Volume CE diameter D[3,2] [1] | Volume CE diameter D[4,3] [1] | D10 [2] | D50 [2] | D90 [2] |
| --- | --- | --- | --- | --- | --- | --- | --- | --- | --- | --- | --- | --- | --- | --- | --- |
| O=C(O)CC(O)(CC(=O)O)C(=O)O.[O-][n+]1cccc(/C(Cl)=N/OC[C@H](O)CN2CCCCC2)c1 [17-001, arimoclomol citrate] | 0.60 μm | 1.60 μm | 9.40 μm | 3.70 μm | 1.70 μm | 4.70 μm | 22.00 μm | 9.40 μm | 24.70 μm | 44.40 μm | 17.70 μm | 25.70 μm | – | – | – |
| O=C(O)CC(O)(CC(=O)O)C(=O)O.[O-][n+]1cccc(/C(Cl)=N/OC[C@H](O)CN2CCCCC2)c1 [17-002, arimoclomol citrate] | 0.70 μm | 2.20 μm | 7.40 μm | 3.40 μm | 1.10 μm | 3.20 μm | 13.90 μm | 6.20 μm | 14.00 μm | 35.00 μm | 11.40 μm | 17.10 μm | – | – | – |
| O=C(O)CC(O)(CC(=O)O)C(=O)O.[O-][n+]1cccc(/C(Cl)=N/OC[C@H](O)CN2CCCCC2)c1 [17-003, arimoclomol citrate] | 1.00 μm | 2.00 μm | 5.80 μm | 2.90 μm | 1.40 μm | 3.20 μm | 10.50 μm | 4.60 μm | 11.10 μm | 26.70 μm | 8.80 μm | 13.70 μm | – | – | – |
| O=C(O)CC(O)(CC(=O)O)C(=O)O.[O-][n+]1cccc(/C(Cl)=N/OC[C@H](O)CN2CCCCC2)c1 [17-004, arimoclomol citrate] | 0.80 μm | 2.00 μm | 23.50 μm | 6.70 μm | 1.50 μm | 4.00 μm | 40.70 μm | 24.60 μm | 38.90 μm | 52.20 μm | 34.20 μm | 38.80 μm | – | – | – |
| O=C(O)CC(O)(CC(=O)O)C(=O)O.[O-][n+]1cccc(/C(Cl)=N/OC[C@H](O)CN2CCCCC2)c1 [18-001, arimoclomol citrate] | 0.80 μm | 2.50 μm | 10.70 μm | 4.60 μm | 1.80 μm | 4.10 μm | 16.80 μm | 11.20 μm | 26.40 μm | 37.60 μm | 19.50 μm | 25.40 μm | – | – | – |
| O=C(O)CC(O)(CC(=O)O)C(=O)O.[O-][n+]1cccc(/C(Cl)=N/OC[C@H](O)CN2CCCCC2)c1 [18-002, arimoclomol citrate] | 0.90 μm | 2.20 μm | 10.10 μm | 4.20 μm | 1.50 μm | 3.60 μm | 16.60 μm | 10.90 μm | 22.70 μm | 36.00 μm | 17.90 μm | 23.30 μm | – | – | – |
| O=C(O)CC(O)(CC(=O)O)C(=O)O.[O-][n+]1cccc(/C(Cl)=N/OC[C@H](O)CN2CCCCC2)c1 [18-003, arimoclomol citrate] | 4.40 μm | 21.80 μm | 38.20 μm | 22.10 μm | 8.00 μm | 29.90 μm | 56.10 μm | 24.00 μm | 37.60 μm | 58.30 μm | 35.40 μm | 41.10 μm | – | – | – |
| O=C(O)CC(O)(CC(=O)O)C(=O)O.[O-][n+]1cccc(/C(Cl)=N/OC[C@H](O)CN2CCCCC2)c1 [18-004, arimoclomol citrate] | 3.70 μm | 12.00 μm | 29.20 μm | 14.90 μm | 5.30 μm | 15.40 μm | 40.00 μm | 19.40 μm | 39.80 μm | 81.20 μm | 33.90 μm | 45.90 μm | – | – | – |
| O=C(O)CC(O)(CC(=O)O)C(=O)O.[O-][n+]1cccc(/C(Cl)=N/OC[C@H](O)CN2CCCCC2)c1 [compound 2001, arimoclomol citrate] | – | – | – | – | – | – | – | – | – | – | – | – | 17.2 μm | 47.2 μm | 112 μm |
| O=C(O)CC(O)(CC(=O)O)C(=O)O.[O-][n+]1cccc(/C(Cl)=N/OC[C@H](O)CN2CCCCC2)c1 [compound 2002, arimoclomol citrate] | – | – | – | – | – | – | – | – | – | – | – | – | 4.33 μm | 12.5 μm | 37.9 μm |
| O=C(O)CC(O)(CC(=O)O)C(=O)O.[O-][n+]1cccc(/C(Cl)=N/OC[C@H](O)CN2CCCCC2)c1 [compound 2003, arimoclomol citrate] | – | – | – | – | – | – | – | – | – | – | – | – | 4.65 μm | 13.5 μm | 40.7 μm |
| O=C(O)CC(O)(CC(=O)O)C(=O)O.[O-][n+]1cccc(/C(Cl)=N/OC[C@H](O)CN2CCCCC2)c1 [compound 2004, arimoclomol citrate] | – | – | – | – | – | – | – | – | – | – | – | – | 10.2 μm | 34.8 μm | 87 μm |
| O=C(O)CC(O)(CC(=O)O)C(=O)O.[O-][n+]1cccc(/C(Cl)=N/OC[C@H](O)CN2CCCCC2)c1 [compound 2005, arimoclomol citrate] | – | – | – | – | – | – | – | – | – | – | – | – | 11.2 μm | 35.6 μm | 82.6 μm |
| O=C(O)CC(O)(CC(=O)O)C(=O)O.[O-][n+]1cccc(/C(Cl)=N/OC[C@H](O)CN2CCCCC2)c1 [compound 2006, arimoclomol citrate] | – | – | – | – | – | – | – | – | – | – | – | – | 11.6 μm | 35.6 μm | 77.7 μm |
